Measurements published in patent publication US9717742B2, “Oxysterol analogue OXY133 induces osteogenesis and hedgehog signaling and inhibits adipogenesis” (The Regents of the University of California, priority 2012, dated 2017).

Experiments:
[1] = system: M2-10B4 (M2) bone marrow stromal cells; assay: Alkaline phosphatase (ALP) activity assay on whole cell extracts, M2 cells; assay type: cell-based, mouse; details: data not shown
Lewis rats [2] = details: prior studies (15), 4 weeks; cited from earlier work
[3] = system: 8×-Gli luciferase reporter (Hedgehog signaling); assay: Gli-dependent luciferase reporter assay in C3H cells; assay type: cell-based, mouse; details: 48 hours
Experimental: After 4 days ALP activity, and after 7 days the expression of osteogenic genes ALP, BSP, and OSX was measured by quantitative real-time PCR (p<0.001 for control vs. Oxy133, and for Oxy133 vs. Oxy133+Cyc for ALP activity and for the expression of all genes shown). […] (p<0.001 for control vs. Oxy133 at 100 nM, 250 nM, and 1 μM Oxy133). (FIG. 4C) The amount of YFP-Smo captured by 20S beads or control beads was compared in samples containing either no competitor or 50 μM of a free competitor sterol (20S, Oxy133 or Oxy16). The YFP-Smo captured by the beads was measured by Western blot (top) and plotted (bottom) relative to the amount captured in the binding reaction with no competitor.
Cells at 70% confluence in 24-well plates were transiently transfected with Gli-dependent firefly luciferase and Renilla luciferase vectors as we have previously described (17, 18). […] Luciferase activity was assessed using the Dual Luciferase Reporter Assay System (Promega Corporation, Madison, Wis.) according to manufacturer's instructions after cells were treated for 48 hours.

Lewis rats [4] = assay: Posterolateral intertransverse process spinal fusion at L4-L5 in rats; assay type: in vivo, rat; details: for Fusion Rates (%) Manual Palpation / Fusion Rates (%) Micro-CT / Fusion Rates (%) X-ray: at sacrifice (8 weeks); for bilateral fusion on radiographs: four weeks; for trabecular thickness: micro-CT, 8 weeks
Experimental: Thirty-eight 8-week-old male Lewis rats were purchased from Charles River Laboratories (Wilmington, Mass.) and were maintained and housed at the UCLA vivarium in accordance with regulations set forth by the UCLA Office of Protection of Research Subjects. The study was performed under a protocol approved by the UCLA Animal Research Committee (ARC).
Animals were pre-medicated with sustained release buprenorphine thirty minutes prior to surgery and anesthetized with 2% isoflurane administered in oxygen (1 L/min). The surgical site was shaved and disinfected with Betadine and 70% ethanol. Posterolateral intertransverse process spinal fusion at L4-L5 was performed as in prior studies (21, 22). The L6 vertebral body was identified using the iliac crest as a landmark. A 4-cm longitudinal midline incision was made through the skin and subcutaneous tissue over L4-L5 down to the lumbodorsal fascia. A 2-cm longitudinal paramedial incision was then made in the paraspinal muscles bilaterally to expose the transverse processes of L4-L5, which were decorticated with a high-speed burr. The surgical site was then irrigated with sterile saline, and 5 mm×5 mm×13 mm pieces of collagen sponge (Helistat, Integra Life Sciences) containing dimethyl sulfoxide (DMSO) control, rhBMP-2, or Oxy133 were placed bilaterally, with each implant spanning the transverse processes. The implants were then covered with the overlying paraspinal muscles and the lumbodorsal fascia and skin were closed with 4-0 Prolene sutures (Ethicon, Inc., Somerville, N.J.). Animals were allowed to ambulate, eat, and drink ad libitum immediately after surgery.
Posteroanterior radiographs of the lumbar spine were taken on each animal at 4, 6, and 8 weeks after surgery using a Faxitron LX60 cabinet radiography system and evaluated blindly by two independent observers employing the following standardized scale: 0, no fusion; 1, unilateral fusion; and 2, complete bilateral fusion. The scores from the observers were added together and only a score of 4 was considered as complete fusion.
Eight weeks after surgery, animals were euthanized and the spines were surgically removed and evaluated by two blinded independent observers for motion between levels. Nonunion was recorded if motion was observed between the facets or transverse processes on either side. Complete fusion was recorded if no motion was observed bilaterally. Spines were scored as either fused or not fused. Unanimous agreement was required to consider complete fusion.
Each removed spine was analyzed by high resolution micro-computed tomography (micro-CT), using a SkyScan 1172 scanner (SkyScan, Belgium) with a voxel isotropic resolution of 20 μm and an X-ray energy of 55 kVp and […] to further assess the fusion rate and observe the fusion mass as we have previously reported (15). Three hundred and sixty projections were acquired over an angular range of 180° with steps of 0.5 with an exposure time of 220 msec/slice. Five frames were averaged at each rotation step to get better signal to noise ratio. A 0.5 mm aluminum filter was used to narrow down the X-ray beam frequency in order to minimize beam hardening artifact. Virtual image slices were reconstructed using the cone-beam reconstruction software version 2.6 based on the Feldkamp algorithm (SkyScan). These settings produced serial cross-sectional 1024×1024 pixel images. Sample re-orientation and 2D visualization were performed using DataViewer (SkyScan). 3D visualization was performed using Dolphin Imaging version 11 (Dolphin Imaging & Management Solutions, Chatsworth, Calif.). Fusion was defined as the bilateral presence of bridging bone between the L4 and L5 transverse processes. The reconstructed images were judged to be fused or not fused by two experienced independent observers.

CC1=C2C[C@H]3[C@@H](CC=C4C[C@@H](O)CC[C@@]43C)[C@@H]2CC[C@]12O[C@@H]1C[C@H](C)CN[C@H]1[C@H]2C [Cyclopamine]
inhibition of Oxy133-induced ALP activity and expression of osteogenic markers [1]: completely inhibited

CC(C)CCCC(C)(O)C1CCC2C3CC(O)C4CC(O)CCC4(C)C3CCC21C (stereo not shown) [Oxy34]
fusion at the 4 week time point in prior studies (Lewis rats [2]): no fusion

C=C(C)CCC[C@](C)(O)[C@H]1CC[C@H]2[C@@H]3C[C@H](O)[C@H]4C[C@@H](O)CC[C@]4(C)[C@H]3CC[C@@]21C [Oxy49]
fusion at the 4 week time point in prior studies (Lewis rats [2]): no fusion

CCCCCC[C@](C)(O)[C@H]1CC[C@H]2[C@@H]3C[C@H](O)[C@H]4C[C@@H](O)CC[C@]4(C)[C@H]3CC[C@@]21C [Oxy133, (3S,5S,6S,8R,9S,10R,13S,14S,17S) 17-((S)-2-hydroxyoctan-2-yl)-10,13-dimethylhexadecahydro-1H-cyclopenta[a]phenanthrene-3,6-diol]
induction of Gli-dependent reporter activity ([3]; 100 nM): 5 fold
induction of Gli-dependent reporter activity ([3]; at 1 Oxy133 (unit not given)): 17 fold
Fusion Rates (%) Manual Palpation (Lewis rats [4]; Oxy133 0.2 mg): 0%
Fusion Rates (%) Micro-CT (Lewis rats [4]; Oxy133 0.2 mg): 0%
Fusion Rates (%) X-ray (Lewis rats [4]; Oxy133 0.2 mg): 0%
bilateral fusion, micro-CT (Lewis rats [4]; Oxy133 2 mg): 4/8
bilateral fusion confirmed on manual palpation (Lewis rats [4]; Oxy133 2 mg, after sacrifice): 4/8
Fusion Rates (%) Manual Palpation (Lewis rats [4]; Oxy133 2 mg): 50%
Fusion Rates (%) Micro-CT (Lewis rats [4]; Oxy133 2 mg): 50%
Fusion Rates (%) X-ray (Lewis rats [4]; Oxy133 2 mg): 50%
fusion on radiographs (Lewis rats [4]; Oxy133 2 mg, eight weeks): 4/8
bilateral fusion on radiographs (Lewis rats [4]; Oxy133 2 mg): 3/8
trabecular thickness (Lewis rats [4]; Oxy133 2 mg): 134.008
bilateral fusion by manual assessment (Lewis rats [4]; Oxy133 20 mg, after sacrifice): 6/7
Fusion Rates (%) Manual Palpation (Lewis rats [4]; Oxy133 20 mg): 86%
Fusion Rates (%) Micro-CT (Lewis rats [4]; Oxy133 20 mg): 100%
Fusion Rates (%) X-ray (Lewis rats [4]; Oxy133 20 mg): 100%
bilateral fusion on radiographs (Lewis rats [4]; Oxy133 20 mg): 6/7
trabecular thickness (Lewis rats [4]; Oxy133 20 mg): 124.737
